Test results: US7238697B2, “Pyridylpyrimidines for use as pesticides” (Bayer CropScience AG, priority 2001, dated 2007)

Tested on: peach aphids (Myzus persicae)
Experiment: Myzus test (cabbage leaves dipped)
Type: in vivo
Details: 144 h, 100 ppm, after 6 d, solvent 30 parts DMF, emulsifier 1 part (Table D-1), read-out: Kill rate in % after 6 d
Description: To produce a suitable preparation of active compound, 1 part by weight of active compound is mixed with the stated amounts of solvent and emulsifier, and the concentrate is diluted with emulsifier-containing water to the desired concentration. Cabbage leaves (Brassica oleracea) which are heavily infested by peach aphids (Myzus persicae) are treated by being dipped into the preparation of the active compound of the desired concentration. After the desired period of time, the kill in % is determined. 100% means that all aphids have been killed; 0% means that none of the aphids has been killed.
`COC(=O)CSc1nccc(-c2ccccn2)n1` [drawing 415] gave a pest or weed control at 100 ppm of 100%. `COC(=O)C(Sc1nccc(-c2ccccn2)n1)C(=O)OC` [drawing 421] showed a pest or weed control at 100 ppm of 95%.

Same assay, conditions: 144 h, 200 ppm, after 6 d, solvent 30 parts DMF, emulsifier 1 part (Table D-1), read-out: Kill rate in % after 6 d
`COC(=O)CC(=O)CSc1nccc(-c2ccccn2)n1` [drawing 427] gave a pest or weed control at 200 ppm of 95%.

Same assay, conditions: 144 h, 500 ppm, after 6 d, solvent 7 parts DMF, emulsifier 2 parts (Table D-2), read-out: Kill rate in % after 6 d
`CCC1(COC(=O)CSc2nccc(-c3ccccn3)n2)CCO1` (centres unmarked) [drawing 428] showed a pest or weed control at 500 ppm of 98%. Work on `CCOC(=O)C1CC1COC(=O)CSc1nccc(-c2ccccn2)n1` (centres unmarked) [drawing 429] yielded a pest or weed control at 500 ppm of 98%. With `COCN(C)C(=O)COC(=O)CSc1nccc(-c2ccccn2)n1` [drawing 430] the pest or weed control at 500 ppm was 98%. `O=C(CSc1nccc(-c2ccccn2)n1)OCC(F)=C(Cl)Cl` [drawing 431] showed a pest or weed control at 500 ppm of 100%. `O=C(CSc1nccc(-c2ccccn2)n1)OC1CS(=O)(=O)C1` [drawing 432] gave a pest or weed control at 500 ppm of 100%. Compound `CC(=O)NCC(C)OC(=O)CSc1nccc(-c2ccccn2)n1` (centres unmarked) [drawing 433] has a pest or weed control at 500 ppm of 95%. Work on `CC(C)OC(=O)C(C)OC(=O)CSc1nccc(-c2ccccn2)n1` (centres unmarked) [drawing 434] yielded a pest or weed control at 500 ppm of 95%. `O=C(CSc1nccc(-c2ccccn2)n1)OC1CC(F)(F)C1(F)F` (centres unmarked) [drawing 435] gave a pest or weed control at 500 ppm of 100%. With `O=C(CSc1nccc(-c2ccccn2)n1)OC1COC1` [drawing 436] the pest or weed control at 500 ppm was 95%. For `NC(=O)CCSc1nccc(-c2ccccn2)n1` [drawing 437], the pest or weed control at 500 ppm was 80%. Compound `CC(C)(C)SC(=O)CSc1nccc(-c2ccccn2)n1` [drawing 438] has a pest or weed control at 500 ppm of 95%. For `CCOC(=O)CSc1nccc(-c2cc(OC)ccn2)n1` [drawing 439], the pest or weed control at 500 ppm was 90%. For `CCOC(=O)CSc1nccc(-c2ccc(C)cn2)n1` [drawing 440], the pest or weed control at 500 ppm was 98%.

Same assay, conditions: 144 h, 1000 ppm, after 6 d, solvent 30 parts DMF, emulsifier 1 part (Table D-1), read-out: Kill rate in % after 6 d
In the case of `CCOC(=O)CSc1nccc(-c2ccccn2)n1` [drawing 416], the pest or weed control at 1000 ppm is reported as 100%. With `CCCOC(=O)CSc1nccc(-c2ccccn2)n1` [drawing 417] the pest or weed control at 1000 ppm was 95%. In the case of `CC(C)OC(=O)CSc1nccc(-c2ccccn2)n1` [drawing 418], the pest or weed control at 1000 ppm is reported as 100%. In the case of `C=CCOC(=O)CSc1nccc(-c2ccccn2)n1` [drawing 419], the pest or weed control at 1000 ppm is reported as 95%. `O=C(CSc1nccc(-c2ccccn2)n1)OC1CCCCC1` [drawing 420] showed a pest or weed control at 1000 ppm of 100%. With `NC(=O)CSc1nccc(-c2ccccn2)n1` [drawing 422] the pest or weed control at 1000 ppm was 95%. With `COC(=O)CCCSc1nccc(-c2ccccn2)n1` [drawing 423] the pest or weed control at 1000 ppm was 100%. For `O=C(O)CSc1nccc(-c2ccccn2)n1` [drawing 424], the pest or weed control at 1000 ppm was 100%.

Tested on: not listed separately
Experiment: log P determination by HPLC (reversed-phase C18), EEC Directive 79/831 Annex V.A8
Type: physicochemical
Details: reversed-phase C18 HPLC column; pH 2.3; HPLC, reversed-phase C 18, 43° C., 0.1% aqueous phosphoric acid/acetonitrile; read-out: log P (pH 2.3)
`CCOC(=O)CSc1nccc(-c2ccc(Br)cn2)n1` [Example 305] showed a chromatographic logP of 3.39. Work on `CCOC(=O)CSc1nccc(-c2ccc([N+](=O)[O-])cn2)n1` [Example 306] yielded a chromatographic logP of 2.77. For `CCOC(=O)CSc1nccc(-c2cccc(Br)n2)n1` [Example 307], the chromatographic logP was 3.31. `O=C(CSc1nccc(-c2ccccn2)n1)Nc1cccc([N+](=O)[O-])c1` [Example 308] gave a chromatographic logP of 2.25. For `COC(=O)c1ccc(NC(=O)CSc2nccc(-c3ccccn3)n2)cc1` [Example 309], the chromatographic logP was 2.16. For `CCOC(=O)C(C)N(C)C(=O)CSc1nccc(-c2ccccn2)n1` (centres unmarked) [Example 310], the chromatographic logP was 1.93. `CCOC(=O)/C=C(/CSc1nccc(-c2ccccn2)n1)OCC` [Example 311] gave a chromatographic logP of 3.39. `CC(C)(C)SC(=O)CSc1nccc(-c2ccccn2)n1` [Example 312] gave a chromatographic logP of 3.61. Work on `Cc1c(NC(=O)CSc2nccc(-c3ccccn3)n2)cccc1[N+](=O)[O-]` [Example 313] yielded a chromatographic logP of 2.28. With `NC(=O)CCSc1nccc(-c2ccccn2)n1` [Example 314] the chromatographic logP was 0.96. `CCOC(=O)CN(CC)c1nccc(-c2ccccn2)n1` [Example 315] showed a chromatographic logP of 2.13. With `CCOC(=O)CSc1nccc(-c2cc(C(C)(C)C)ccn2)n1` [Example 316] the chromatographic logP was 3.55. `CCOC(=O)CSc1nccc(-c2ccc(SC)cn2)n1` [Example 317] gave a chromatographic logP of 1.68. With `N#CCSc1nccc(-c2ccccn2)n1` [{[4-(2-pyridinyl)-2-pyrimidinyl]thio}acetonitrile] the chromatographic logP was 1.68.

Tested on: thrips (Franklinella occidentalis)
Experiment: Franklinella test (cucumber plants sprayed)
Type: in vivo
Details: 1000 ppm
Description: To product a suitable preparation of active compound, 1 part by weight of active compound is mixed with the stated amounts of solvent and emulsifier, and the concentrate is diluted to the desired concentration.
Cucumber plants (Cucumis sativus) which are heavily infested by all stages of thrips (Franklinella occidentalis) are sprayed with a preparation of active compound of the desired concentration.
After the desired period of time, the effect in % is determined. 100% means that all thrips have been killed; 0% means that none of the thrips have been killed.
In the case of `COC(=O)CSc1nccc(-c2ccccn2)n1` [drawing 401], the “Kill rate in % after 7 d” value is reported as 99%.

Tested on: cotton aphid (Aphis gossypii)
Experiment: Aphis gossypii test (cotton leaves dipped)
Type: in vivo
Details: 200 ppm
Description: To produce a suitable preparation of active compound, 1 part by weight of active compound is mixed with the stated amounts of solvent and emulsifier, and the concentrate is diluted with emulsifier-containing water to the desired concentration. Cotton leaves (Gossypium hirsutum) which are heavily infested by the cotton aphid (Aphis gossypii) are treated by being dipped into the preparation of active compound of the desired concentration. After the desired period of time, the kill in % is determined. 100% means that all aphids have been killed; 0% means that none of the aphids have been killed.
For `COC(=O)CSc1nccc(-c2ccccn2)n1` [drawing 398], the “Kill rate in % after 6 d” value was 85%. In the case of `CCCOC(=O)CSc1nccc(-c2ccccn2)n1` [drawing 399], the “Kill rate in % after 6 d” value is reported as 85%. For `O=C(CSc1nccc(-c2ccccn2)n1)OC1CCCCC1` [drawing 400], the “Kill rate in % after 6 d” value was 90%.

Tested on: larvae of the mustard beetle (Phaedon cochleariae)
Experiment: Phaedon larvae test (cabbage leaves dipped)
Type: in vivo
Details: 500 ppm, solvent 7 parts DMF, emulsifier 2 parts (Table E-2)
Description: To produce a suitable preparation of active compound, 1 part by weight of active compound is mixed with the stated amounts of solvent and emulsifier, and the concentrate is diluted with emulsifier-containing water to the desired concentration. Cabbage leaves (Brassica oleracea) are treated by being dipped into the preparation of active compound of the desired concentration and are populated with larvae of the mustard beetle (Phaedon cochleariae) while the leaves are still moist. After the desired period of time, the kill in % is determined. 100% means that all beetle larvae have been killed; 0% means that none of the beetle larvae have been killed.
With `CCOC(=O)CSc1nccc(-c2ccc(C(F)(F)F)cn2)n1` [drawing 442] the “Kill rate in % after 7 d” value was 100%. For `CCOC(=O)CSc1nccc(-c2ccc(Cl)cn2)n1` [drawing 443], the “Kill rate in % after 7 d” value was 100%. For `CC(C)(C)n1nnc(CSc2nccc(-c3ccccn3)n2)n1` [drawing 444], the “Kill rate in % after 7 d” value was 100%.

Same assay, conditions: 1000 ppm, solvent 30 parts DMF, emulsifier 1 part (Table E-1)
In the case of `O=C(CSc1nccc(-c2ccccn2)n1)N/N=C/c1ccc([N+](=O)[O-])cc1` [drawing 441], the “Kill rate in % after 7 d” value is reported as 100%.

Tested on: Meloidogyne incognita
Experiment: Meloidogyne test (gall formation on lettuce roots)
Type: in vivo
Details: 336 h, after 14 d, solvent 7 parts DMF, emulsifier 2 parts (Table C-2), read-out: Kill rate in % after 14 d
Description: To produce a suitable preparation of active compound, 1 part by weight of active compound is mixed with the stated amounts of solvent and emulsifier, and the concentrate is diluted with water to the desired concentration. Vessels are filled with sand, solution of active compound, Meloidogyne incognita egg/larvae suspension and lettuce seeds. The lettuce seeds germinate and the plants develop. On the roots, galls are formed. After the desired period of time, the nematicidal action is determined in % by the gall formation. 100% means that no galls were found; 0% means that the number of galls on the treated plants corresponds to that of the untreated control.
With `CCOC(=O)C(C)OC(=O)CSc1nccc(-c2ccccn2)n1` (centres unmarked) [drawing 409] the pest or weed control at 20 ppm was 80%. With `COC(=O)CSc1nc(-c2ccccc2)cc(-c2ccccn2)n1` [drawing 410] the pest or weed control at 20 ppm was 100%. Compound `CCOC(=O)CSc1nccc(-c2ccc(CC)cn2)n1` [drawing 411] has a pest or weed control at 20 ppm of 90%. With `CCOC(=O)CSc1nccc(-c2ccc(C)cn2)n1` [drawing 412] the pest or weed control at 20 ppm was 90%. In the case of `CCOC(=O)CSc1nccc(-c2ccc(C(F)(F)F)cn2)n1` [drawing 413], the pest or weed control at 20 ppm is reported as 100%. For `CC(C)(C)n1nnc(CSc2nccc(-c3ccccn3)n2)n1` [drawing 414], the pest or weed control at 20 ppm was 90%.

Same assay, conditions: 336 h, after 14 d, solvent 30 parts DMF, emulsifier 1 part (Table C-1), read-out: Kill rate in % after 14 d
Work on `CCOC(=O)CSc1nccc(-c2ccccn2)n1` [drawing 402] yielded a pest or weed control at 20 ppm of 90%. Work on `COCCOC(=O)CSc1nccc(-c2ccccn2)n1` [drawing 403] yielded a pest or weed control at 20 ppm of 90%. Compound `CC(C)=NNC(=O)CSc1nccc(-c2ccccn2)n1` [drawing 404] has a pest or weed control at 20 ppm of 98%. `COC(=O)CCCSc1nccc(-c2ccccn2)n1` [drawing 405] gave a pest or weed control at 20 ppm of 90%. With `COC(=O)CSc1nc(-c2ccccn2)c2cc(Cl)ccc2n1` [drawing 406] the pest or weed control at 20 ppm was 98%. In the case of `COC(=O)CSc1nc(-c2ccccn2)cc(-c2ccccn2)n1` [drawing 407], the pest or weed control at 20 ppm is reported as 95%. With `CCOC(=O)/C=C/CSc1nccc(-c2ccccn2)n1` [drawing 408] the pest or weed control at 20 ppm was 100%.

Tested on: caterpillars of the army worm (Spodoptera frugiperda)
Experiment: Spodoptera frugiperda test (cabbage leaves dipped)
Type: in vivo
Details: 500 ppm, solvent 7 parts DMF, emulsifier 2 parts
Description: To produce a suitable preparation of active compound, 1 part by weight of active compound is mixed with the stated amounts of solvent and emulsifier, and the concentrate is diluted with emulsifier-containing water to the desired concentration. Cabbage leaves (Brassica oleracea) are treated by being dipped into the preparation of active compound of the desired concentrated and are populated with caterpillars of the army worm (Spodoptera frugiperda) while the leaves are still moist. After the desired period of time, the kill in % is determined. 100% means that all caterpillars have been killed; 0% means that none of the caterpillars has been killed.
For `CCOC(=O)CSc1nc(C)cc(-c2ccccn2)n1` [drawing 445], the “Kill rate in % after 7 d” value was 100%. For `CCOC(=O)CSc1nccc(-c2ccc(C(F)(F)F)cn2)n1` [drawing 446], the “Kill rate in % after 7 d” value was 100%. In the case of `CC(C)(C)n1nnc(CSc2nccc(-c3ccccn3)n2)n1` [drawing 447], the “Kill rate in % after 7 d” value is reported as 100%.
